Columns and labels:
MitE = biological target: T1, MitE (Streptomyces lavendulae, UniProt Q9X5R7); experiment: HPLC of AHBA released from MmcB by KOH or cysteamine; format: biochemical; conditions: holo-MmcB as acceptor
T1 sequence (Q9X5R7 1-707): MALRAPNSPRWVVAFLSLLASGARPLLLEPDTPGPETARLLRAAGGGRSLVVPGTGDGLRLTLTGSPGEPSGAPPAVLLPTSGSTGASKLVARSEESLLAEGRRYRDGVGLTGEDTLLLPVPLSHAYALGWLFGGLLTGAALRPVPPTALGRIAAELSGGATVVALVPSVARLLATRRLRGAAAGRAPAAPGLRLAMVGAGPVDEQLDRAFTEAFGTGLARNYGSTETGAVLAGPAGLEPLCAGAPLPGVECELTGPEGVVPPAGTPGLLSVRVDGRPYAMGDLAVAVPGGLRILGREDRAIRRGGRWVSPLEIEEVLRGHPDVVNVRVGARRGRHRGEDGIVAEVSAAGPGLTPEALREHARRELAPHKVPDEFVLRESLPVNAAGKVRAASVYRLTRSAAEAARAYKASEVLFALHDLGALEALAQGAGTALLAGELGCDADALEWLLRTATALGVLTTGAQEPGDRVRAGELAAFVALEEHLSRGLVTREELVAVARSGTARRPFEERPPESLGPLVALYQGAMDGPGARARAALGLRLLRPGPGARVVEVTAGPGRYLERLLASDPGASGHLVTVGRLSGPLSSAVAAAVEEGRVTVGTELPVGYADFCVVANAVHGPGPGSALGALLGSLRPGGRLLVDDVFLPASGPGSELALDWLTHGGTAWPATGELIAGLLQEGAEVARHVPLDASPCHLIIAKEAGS
T1 sequence (Q9X5S0 1-93 partner): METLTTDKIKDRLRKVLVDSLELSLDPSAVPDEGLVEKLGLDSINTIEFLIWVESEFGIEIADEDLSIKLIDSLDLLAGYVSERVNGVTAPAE

MitB = MitB (Streptomyces lavendulae, UniProt Q9WW09); experiment: anion exchange HPLC steady-state kinetics, Michaelis-Menten fit; format: biochemical; conditions: pseudo-first order

Nc1cc(O)cc(C(=O)O)c1 [AHBA]
HPLC of AHBA released from MmcB by KOH or cysteamine (MitE; ATP): These evidences in combination suggest that MitE catalyzes the loading of AHBA onto holo-MmcB

Nc1ncnc2c1ncn2[C@@H]1O[C@H](COP(=O)(O)OP(=O)(O)OP(=O)(O)O)[C@@H](O)[C@H]1O [ATP]
HPLC of AHBA released from MmcB by KOH or cysteamine (MitE; AHBA): we investigated the ability of MitE to load AHBA to holo-MmcB in the presence of ATP

CC(=O)NCCSC(=O)c1cc(N)cc(O)c1 [SNAc-AHBA]
Km (MitB; 2 mM UDP-GlcNAc as donor): 10 ± 3.3 mM

CC(=O)N[C@H]1[C@@H](OP(=O)(O)OP(=O)(O)OC[C@H]2O[C@@H](n3ccc(=O)[nH]c3=O)[C@H](O)[C@@H]2O)O[C@H](CO)[C@@H](O)[C@@H]1O [UDP-GlcNAc]
Km (MitB; 2 mM SNAc-AHBA (unsaturating) as acceptor): 0.94 ± 0.15 mM

— paper PMC6597268 (Biochemistry, 2019)
